These are literature values, as cited in paper PMC7992120 (Nature chemical biology, 2018).

Data set [1] has as its system human bradykinin 1 receptor (B1R). The following applies: for affinity for B1R of peptides lacking N-terminal lysine (in words): no reference at the sentence (Fig. 1).
The subject of data set [2] is B2R, "these residues" replaced by alanine or positively charged amino acids. The following applies: replacement by alanine or positively charged amino acids.
Data set [3] concerns human bradykinin 2 receptor (B2R). The following applies: for affinity for B2R (in words): agonist.
Another data set concerns dog B1R. The following applies: D^7.29 replaced by Asn.

Turning to KRPPGFSPL [DALK], in data set [1] (B1R antagonist), the “B1R antagonism / affinity (in words)” value was “high-affinity antagonist for B1R”.

For “bradykinin (RPPGFSPFR; Bradykinin; UniProt P01042 381-389, looked up) [BK]”, the “BK binding of mutant (in words)” value in data set [2] is reported as “substantially impairs BK binding in B2R”. Further, in data set [1] (human B1R), the “affinity for B1R of peptides lacking N-terminal lysine (in words)” value was “rather low affinity to the B1R”. Further, in data set [3], the “affinity for B2R, Figure 1 legend (in words)” value is recorded as “high-affinity ligands for B2R” and the “affinity for B2R (in words)” value was “high-affinity agonists”.

desArg^9-bradykinin [DABK]: the “selectivity between DAKD and DABK (in words)” value in the data set on dog B1R is “no significant selectivity between DAKD and DABK”. Also, in data set [1] (human B1R), the “affinity for B1R, Figure 1 legend (in words)” value is listed as “not DABK, binds with high affinity to B1R” and the “affinity for B1R of peptides lacking N-terminal lysine (in words)” value is recorded as “rather low affinity to the B1R”. For the same substance, the “affinity for B2R of desArg peptides (in words)” value in data set [3] is “only weak binding affinity to the B2R”.

In the case of kallidin [KD], in data set [3], the “affinity for B2R, Figure 1 legend (in words)” value is listed as “high-affinity ligands for B2R” and the “affinity for B2R (in words)” value is listed as “high-affinity agonists”.
